# In US8691811B2, “Quinazolinone linked pyrrolo[2,1-c][1,4]benzodiazepine hybrids as potential anticancer agents and process for the preparation thereof” (Council of Scientific & Industrial Research, priority 2008, dated 2014):
# Legend:
# Type in all cases: cell-based, human
# [1] = tested on: Ovarian cancer cell lines; assay: NCI cytotoxicity (SRB, 48 h), ovarian panel; settings: Ovarian panel average
# Procedure: (§1) The C8-linked quinazolinone-PBD hybrid (5d) has been tested against sixty human tumour cell lines derived from nine cancer types (leukemia, non-small cell lung cancer, colon cancer, CNS cancer, melanoma, ovarian cancer, renal cancer, prostate cancer and breast cancer) as per NCI protocol. For each compound, dose response curves for individual cell lines have been measured at a minimum of five concentrations at 10 fold dilutions. A protocol of 48 h continuous drug exposure has been used, and a sulforhodamine B (SRB) protein assay was used to estimate cell viability or growth. The concentration for 50% cell growth inhibition (GI50), total cell growth inhibition (TGI, 0% growth) and 50% cell death (LC50, […]) compared with the control has been calculated (Table-1). Compound 5d has been evaluated for their in vitro cytotoxicity in sixty cell lines from nine human cancer types of lung (Hop-62, NCI-H226, NCI-H522), leukemia (K-562, SR), colon (HCT-116, HCT-15, HCC-2998), CNS(SF-539), melanoma (SK-MEL-5, UACC-62, M14), ovarian (IGROV1), renal (A498), prostate (PC3) breast (BT-549, MDA-MB-435, HS578T) origin. The results are expressed as percent of cell growth determined relative to that of untreated control cells (Table 2). The representative compound 5d has shown significant cytotoxicity against some cancer cell lines.
# Breast cancer cell lines = assay: NCI cytotoxicity (SRB, 48 h), breast panel; settings: Breast panel average
# Procedure: as §1
# MOLT-4 = assay: NCI cytotoxicity (SRB, 48 h), MOLT-4; settings: MOLT-4, leukemia
# Procedure: as §1
# RPMI-8226 = assay: NCI cytotoxicity (SRB, 48 h), RPMI-8226; settings: RPMI-8226, leukemia
# Procedure: as §1
# A549/ATCC = assay: NCI cytotoxicity (SRB, 48 h), A549/ATCC; settings: non-small cell lung
# Procedure: as §1
# EKVX = assay: NCI cytotoxicity (SRB, 48 h), EKVX; settings: non-small cell lung
# Procedure: as §1
# NCI-H322M = assay: NCI cytotoxicity (SRB, 48 h), NCI-H322M; settings: non-small cell lung
# Procedure: as §1
# HCT-116 = assay: NCI cytotoxicity (SRB, 48 h), HCT-116; settings: HCT-116, colon
# Procedure: as §1
# SF-268 = assay: NCI cytotoxicity (SRB, 48 h), SF-268; settings: SF-268, CNS
# Procedure: as §1
# SF-539 = assay: NCI cytotoxicity (SRB, 48 h), SF-539; settings: SF-539, CNS
# Procedure: as §1
# SNB-19 = assay: NCI cytotoxicity (SRB, 48 h), SNB-19; settings: SNB-19, CNS
# Procedure: as §1
# LOX IMVI = assay: NCI cytotoxicity (SRB, 48 h), LOX IMVI; settings: melanoma
# Procedure: as §1
# MALME-3M = assay: NCI cytotoxicity (SRB, 48 h), MALME-3M; settings: melanoma
# Procedure: as §1
# SK-MEL-2 = assay: NCI cytotoxicity (SRB, 48 h), SK-MEL-2; settings: SK-MEL-2, melanoma
# Procedure: as §1
# OVCAR-5 = assay: NCI cytotoxicity (SRB, 48 h), OVCAR-5; settings: OVCAR-5, ovarian
# Procedure: as §1
# OVCAR-8 = assay: NCI cytotoxicity (SRB, 48 h), OVCAR-8; settings: OVCAR-8, ovarian
# Procedure: as §1
# SK-OV-3 = assay: NCI cytotoxicity (SRB, 48 h), SK-OV-3; settings: SK-OV-3, ovarian
# Procedure: as §1
# 786-0 = assay: NCI cytotoxicity (SRB, 48 h), 786-0; settings: 786-0, renal
# Procedure: as §1
# ACHN = assay: NCI cytotoxicity (SRB, 48 h), ACHN; settings: renal
# Procedure: as §1
# CAKI-1 = assay: NCI cytotoxicity (SRB, 48 h), CAKI-1; settings: CAKI-1, renal
# Procedure: as §1
# RXF 393 = assay: NCI cytotoxicity (SRB, 48 h), RXF 393; settings: RXF 393, renal
# Procedure: as §1
# SN12C = assay: NCI cytotoxicity (SRB, 48 h), SN12C; settings: renal
# Procedure: as §1
# TK-10 = assay: NCI cytotoxicity (SRB, 48 h), TK-10; settings: TK-10, renal
# Procedure: as §1
# UO-31 = assay: NCI cytotoxicity (SRB, 48 h), UO-31; settings: UO-31, renal
# Procedure: as §1
structure (smiles),measurement,setting,value
"COc1cc2c(cc1OCCCCCOc1ccc(-n3c(C)nc4ccccc4c3=O)cc1)N=C[C@@H]1CCCN1C2=O [5d, 7-methoxy-8-{5-[4-(2-methyl-4-oxo-3,4-dihydro-3-quinazolinyl)phenoxy]pentyloxy-}-(11aS)-1,2,3,11a-tetrahydro-5H-pyrrolo[2,1-c][1,4]benzodiazepine-5-one]",Log10 GI50,[1],−6.52 mol/L
same,Log10 LC50,[1],−4.79
same,Log10 GI50,Breast cancer cell lines,−6.66 mol/L
same,Log10 LC50,Breast cancer cell lines,−4.90
same,GI50,MOLT-4,190 nM
same,GI50,RPMI-8226,190 nM
same,GI50,A549/ATCC,230 nM
same,GI50,EKVX,870 nM
same,GI50,NCI-H322M,260 nM
same,GI50,HCT-116,150 nM
same,GI50,SF-268,260 nM
same,GI50,SF-539,220 nM
same,GI50,SNB-19,280 nM
same,GI50,LOX IMVI,150 nM
same,GI50,MALME-3M,230 nM
same,GI50,SK-MEL-2,420 nM
same,GI50,OVCAR-5,330 nM
same,GI50,OVCAR-8,340 nM
same,GI50,SK-OV-3,430 nM
same,GI50,786-0,170 nM
same,GI50,ACHN,290 nM
same,GI50,CAKI-1,190 nM
same,GI50,RXF 393,210 nM
same,GI50,SN12C,240 nM
same,GI50,TK-10,310 nM
same,GI50,UO-31,360 nM
